Results from US9539303B2, “Treatment of Ras-expressing tumors” (Celgene Corporation, priority 2006, dated 2017).
Values joined by “and” are separate entries in the source; they are usually repeats but may differ in a detail not shown here. Identical values can stand only once.

Key:
acetylated histone 3 = assay: Tissue biomarker immunoblotting of PANC-1 xenograft tumors: acetylated histone 3; type: in vivo; details: PANC-1 tumors at study completion; FK228 5 mg/kg Q4Dx3, gemcitabine 80 mg/kg Q3Dx4, or both
Procedure: Specimen Collection: […] Tumor xenograft tissue and serum specimens were obtained from in vivo studies performed by the Preclinical Research Laboratory at the completion of the experiments. […] Serum was obtained from whole blood and stored frozen at -70° C. Tissue Biomarkers: Tumor levels of acetylated histone-4, histone-4, […] were quantified by immunoblotting as described. Briefly, frozen tissue was pulverized under liquid nitrogen and homogenized in hypotonic lysis buffer. Small aliquots of the extracts were used for analysis of protein concentration by micro-BCA assay with bovine serum albumin as a protein standard. An equal amount of extracts containing about 20-50 μg protein was electrophoresed in SDS polyacrylamide gels. Proteins were transferred to ImmunoBlot PVDF membrane and were probed with appropriate primary and secondary antibodies. The chemiluminescence signal was captured by autoradiography, quantified by densitometry and expressed as a ratio of actin in each sample lane. For each biomarker, means and standard errors were calculated in each treatment group. […] Following quantitative analysis of biomarker levels in each sample, the results were normalized for b-actin and expressed as percentages of untreated controls. […]

[1] = tested on: PANC-1 human pancreatic tumor xenograft; assay: PANC-1 human pancreatic tumor xenograft tumor growth inhibition study (Example 3); type: in vivo, female nude mice (nu/nu); details: for % TGI / Final tumor volume mean ± SEM: Day 25
Source text: (Madison, Wis.). […] Tumor measurements were converted to cubic millimeter tumor volume using the formula^(5): […] TGI values for each treatment group are reported at study completion; these calculations are based on the final study day. […] Individual mice lacking palpable tumors were classified as undergoing complete regression (CR). Animals experiencing partial or complete tumor regressions were censored from TGI calculations. However, data from these animals was included in statistical analysis calculations. In addition, weight data from these animals was included in daily and final group calculations. Tumor Necrosis-Degree of tumor necrosis was rated at each tumor measurement using the following arbitrary index: […]

B-Raf 600E cells = assay: 4-day proliferation assay, B-Raf 600E NIH-3T3 cells; type: cell-based, mouse; details: 2, 3, or 4 nM romidepsin
Procedure: A series of transformed NIH-3T3 cell likes were generated and a proliferation assay was performed in the presence of 2, 3, or 4 nM romidepsin. FIG. 23 illustrates the transformed morphology of the cells. FIG. 24 presents graphs of cell proliferation.

[2] = PANC-1 study, FK228 2.5 mg/kg IV Q4Dx3
[3] = PANC-1 study, FK228 2.5 mg/kg IV Q4Dx3, 2.5 mg/kg
[4] = PANC-1 study, FK228 5 mg/kg IV Q4Dx3
[5] = PANC-1 study, FK228 5 mg/kg IV Q4Dx3, 5 mg/kg

Compound: C/C=C1\NC(=O)[C@H]2CSSCC/C=C/[C@H](CC(=O)N[C@H](C(C)C)C(=O)N2)OC(=O)[C@H](C(C)C)NC1=O [FK228, romidepsin]
- acetylation of histone 3 (acetylated histone 3): not affected
- % TGI [1, 2]: 26%
- Final tumor volume mean ± SEM [1, 3]: 1688±290 MM^3
- % TGI [1, 4]: 26%
- Final tumor volume mean ± SEM [1, 5]: 1690±290 MM^3 and 1690 ± 331 MM^3
- Activity according to NCI standards [1, 2]: inactive
- Tumor necrosis [1, 2]: 1/9 animals reported slight tumor necrosis, 1/9 reported mild tumor necrosis, 2/9 reported moderate necrosis, and 1/9 reported severe necrosis
- #PR/CR [1, 3]: 0/9 and 0/0
- Activity according to NCI standards [1, 4]: inactive
- Tumor necrosis [1, 4]: 2/9 animals reported slight tumor necrosis, and 1/9 reported moderate necrosis
- #PR/CR [1, 5]: 0/9 and 0/0
- calculated TGI values ([1]; PANC-1 study, at the evaluated doses and schedules): less than 58%
- antitumor activity (overall conclusion) ([1]; ras-transformed PANC-1 model, all evaluated doses): some activity
- potency on proliferation (B-Raf 600E cells): not potent
